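Following 48 hours of exposure in 96-well plates, responses at five concentrations were used to interpolate endpoints linearly. At the GI50, growth is halved.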 The source made the active and inactive calls. No stated cut-off is given here; in the data, active = GI50 up to about 1.1 µM and inactive = higher.
How the values were obtained:
Experiment in all cases: inhibition of tumour cell growth, NCI panel, 48 h
SNB-75 = test system: SNB-75
HOP-92 = test system: HOP-92
HOP-62 = test system: HOP-62
KM-20L2 = test system: KM-20L2
LXFL 529 = test system: LXFL 529
CCRF-CEM = test system: CCRF-CEM
A549 = test system: A549
OVCAR-4 = test system: OVCAR-4
HT-29 = test system: HT-29
OVCAR-3 = test system: OVCAR-3
SNB-19 = test system: SNB-19
U-251 = test system: U-251
786-0 = test system: 786-0
COLO 205 = test system: COLO 205
SR = test system: SR
MOLT-4 = test system: MOLT-4
DMS-273 = test system: DMS-273
HL-60 = test system: HL-60
UACC-62 = test system: UACC-62
XF498 = test system: XF498
IGROV-1 = test system: IGROV-1
NCI-H23 = test system: NCI-H23
RXF 393 = test system: RXF 393
M19-MEL = test system: M19-MEL
NCI-H226 = test system: NCI-H226
KM12 = test system: KM12
SK-MEL-28 = test system: SK-MEL-28
HCC 2998 = test system: HCC 2998
SNB-78 = test system: SNB-78
SF-268 = test system: SF-268
SW-620 = test system: SW-620
HCT-116 = test system: HCT-116
Malme-3M = test system: Malme-3M
EKVX = test system: EKVX
ACHN = test system: ACHN
TK-10 = test system: TK-10
SK-MEL-5 = test system: SK-MEL-5
UACC-257 = test system: UACC-257
M14 = test system: M14
UO-31 = test system: UO-31
DLD-1 = test system: DLD-1
SN12C = test system: SN12C
SK-MEL-2 = test system: SK-MEL-2
HCT-15 = test system: HCT-15
NCI-H460 = test system: NCI-H460
SK-OV-3 = test system: SK-OV-3
SF-539 = test system: SF-539
OVCAR-8 = test system: OVCAR-8
NCI-H522 = test system: NCI-H522
SF-295 = test system: SF-295
LOX IMVI = test system: LOX IMVI
K562 = test system: K562
DMS-114 = test system: DMS-114
RPMI-8226 = test system: RPMI-8226
OVCAR-5 = test system: OVCAR-5

For `CCCCOP1(=O)CC(C)=C(Cl)C(C)(OC)C1` (stereo not drawn), the GI50 (SNB-75) was > 100 µM (inactive), the GI50 (HOP-92) was 43.7 µM (inactive) and the GI50 (HOP-62) was > 100 µM (inactive). The GI50 (KM-20L2) was > 100 µM (inactive), the GI50 (LXFL 529) was 45.2 µM (inactive) and the GI50 (CCRF-CEM) was 28.4 µM (inactive). The GI50 (A549) was > 100 µM (inactive), the GI50 (OVCAR-4) was > 100 µM (inactive) and the GI50 (HT-29) was > 100 µM (inactive). The GI50 (OVCAR-3) was > 100 µM (inactive), the GI50 (SNB-19) was > 100 µM (inactive) and the GI50 (U-251) was > 100 µM (inactive). The GI50 (786-0) was > 100 µM (inactive), the GI50 (COLO 205) was > 100 µM (inactive) and the GI50 (SR) was 31.8 µM (inactive). The GI50 (MOLT-4) was 34.4 µM (inactive), the GI50 (DMS-273) was > 100 µM (inactive) and the GI50 (HL-60) was 26.9 µM (inactive). The GI50 (UACC-62) was > 100 µM (inactive), the GI50 (XF498) was > 100 µM (inactive) and the GI50 (IGROV-1) was > 100 µM (inactive). The GI50 (NCI-H23) was > 100 µM (inactive), the GI50 (RXF 393) was > 100 µM (inactive) and the GI50 (M19-MEL) was > 100 µM (inactive). The GI50 (NCI-H226) was > 100 µM (inactive), the GI50 (KM12) was > 100 µM (inactive) and the GI50 (SK-MEL-28) was > 100 µM (inactive). The GI50 (HCC 2998) was > 100 µM (inactive), the GI50 (SNB-78) was > 100 µM (inactive) and the GI50 (SF-268) was > 100 µM (inactive). The GI50 (SW-620) was 46.7 µM (inactive), the GI50 (HCT-116) was 61.4 µM (inactive) and the GI50 (Malme-3M) was > 100 µM (inactive). For the same molecule, the GI50 (EKVX) was > 100 µM (inactive), the GI50 (ACHN) was > 100 µM (inactive) and the GI50 (TK-10) was > 100 µM (inactive). The GI50 (SK-MEL-5) was > 100 µM (inactive), the GI50 (UACC-257) was > 100 µM (inactive) and the GI50 (M14) was > 100 µM (inactive). The GI50 (UO-31) was > 100 µM (inactive), the GI50 (DLD-1) was 44.8 µM (inactive) and the GI50 (SN12C) was > 100 µM (inactive). For the same molecule, the GI50 (SK-MEL-2) was 41 µM (inactive), the GI50 (HCT-15) was greater than 100 µM and the GI50 (NCI-H460) was > 100 µM (inactive). The GI50 (SK-OV-3) was > 100 µM (inactive), the GI50 (SF-539) was > 100 µM (inactive) and the GI50 (OVCAR-8) was 62.2 µM (inactive). The GI50 (NCI-H522) was 37.9 µM (inactive), the GI50 (SF-295) was > 100 µM (inactive) and the GI50 (LOX IMVI) was > 100 µM (inactive). For the same molecule, the GI50 (K562) was 29.6 µM (inactive).
In the case of `O=C(NC12CC3CC(CC(C3)C1)C2)C(=O)c1c[nH]c2ccccc12`, the GI50 (SNB-75) is reported as > 10 µM (inactive), the GI50 (HOP-92) is reported as 15.1 µM (inactive) and the GI50 (HOP-62) is reported as 19.1 µM (inactive). The GI50 (KM-20L2) was 5.94 µM (inactive), the GI50 (LXFL 529) was 13.4 µM (inactive) and the GI50 (CCRF-CEM) was 16.4 µM (inactive). The GI50 (A549) was 16.3 µM (inactive), the GI50 (OVCAR-4) was 16.3 µM (inactive) and the GI50 (HT-29) was 2.83 µM (inactive). The GI50 (OVCAR-3) was 17 µM (inactive), the GI50 (SNB-19) was 17.9 µM (inactive) and the GI50 (U-251) was 13.5 µM (inactive). For the same molecule, the GI50 (786-0) was 13.1 µM (inactive), the GI50 (COLO 205) was 18.7 µM (inactive) and the GI50 (SR) was 17.8 µM (inactive). For the same molecule, the GI50 (MOLT-4) was 12.2 µM (inactive), the GI50 (DMS-273) was 14.8 µM (inactive) and the GI50 (HL-60) was 15.5 µM (inactive). For the same molecule, the GI50 (UACC-62) was 13.4 µM (inactive), the GI50 (XF498) was 13.1 µM (inactive) and the GI50 (IGROV-1) was 15.8 µM (inactive). For the same molecule, the GI50 (NCI-H23) was 14.7 µM (inactive), the GI50 (M19-MEL) was 18.7 µM (inactive) and the GI50 (NCI-H226) was > 10 µM (inactive). The GI50 (DMS-114) was 18 µM (inactive), the GI50 (KM12) was 13.9 µM (inactive) and the GI50 (SK-MEL-28) was 16.3 µM (inactive). For the same molecule, the GI50 (HCC 2998) was 14.8 µM (inactive), the GI50 (SNB-78) was 18 µM (inactive) and the GI50 (SF-268) was 16.6 µM (inactive). For the same molecule, the GI50 (HCT-116) was 14.7 µM (inactive), the GI50 (Malme-3M) was 15 µM (inactive) and the GI50 (RPMI-8226) was 12.2 µM (inactive). The GI50 (EKVX) was 17.6 µM (inactive), the GI50 (ACHN) was 15.5 µM (inactive) and the GI50 (TK-10) was 27 µM (inactive). For the same molecule, the GI50 (SK-MEL-5) was 15.4 µM (inactive), the GI50 (UACC-257) was 12.9 µM (inactive) and the GI50 (M14) was 14 µM (inactive). For the same molecule, the GI50 (OVCAR-5) was 17.9 µM (inactive), the GI50 (UO-31) was 20 µM (inactive) and the GI50 (SN12C) was 16.5 µM (inactive). The GI50 (SK-MEL-2) was 17.9 µM (inactive), the GI50 (HCT-15) was 12.1 µM and the GI50 (NCI-H460) was 12.1 µM (inactive). The GI50 (SK-OV-3) was 16 µM (inactive), the GI50 (SF-539) was 13.6 µM (inactive) and the GI50 (NCI-H522) was 16.3 µM (inactive). The GI50 (SF-295) was 10.2 µM (inactive), the GI50 (LOX IMVI) was 13.1 µM (inactive) and the GI50 (K562) was 5.77 µM (inactive).

Source: ChEMBL document CHEMBL1201862, “PubChem BioAssay data set” (2004)
